Reference: ChEMBL document CHEMBL1201862, “PubChem BioAssay data set” (2004)
Active and inactive are the calls of the source.

Key:
Leucine aminopeptidase = biological target: T1, Leucine aminopeptidase (Plasmodium falciparum 3D7, UniProt Q8IL11); assay: P. falciparum M17LAP inhibitors, primary screen, biochemical, fluorogenic H-Leu-NHMec substrate, 1536-well (AID 1619); assay type: functional
T1 sequence (Q8IL11 whole entry): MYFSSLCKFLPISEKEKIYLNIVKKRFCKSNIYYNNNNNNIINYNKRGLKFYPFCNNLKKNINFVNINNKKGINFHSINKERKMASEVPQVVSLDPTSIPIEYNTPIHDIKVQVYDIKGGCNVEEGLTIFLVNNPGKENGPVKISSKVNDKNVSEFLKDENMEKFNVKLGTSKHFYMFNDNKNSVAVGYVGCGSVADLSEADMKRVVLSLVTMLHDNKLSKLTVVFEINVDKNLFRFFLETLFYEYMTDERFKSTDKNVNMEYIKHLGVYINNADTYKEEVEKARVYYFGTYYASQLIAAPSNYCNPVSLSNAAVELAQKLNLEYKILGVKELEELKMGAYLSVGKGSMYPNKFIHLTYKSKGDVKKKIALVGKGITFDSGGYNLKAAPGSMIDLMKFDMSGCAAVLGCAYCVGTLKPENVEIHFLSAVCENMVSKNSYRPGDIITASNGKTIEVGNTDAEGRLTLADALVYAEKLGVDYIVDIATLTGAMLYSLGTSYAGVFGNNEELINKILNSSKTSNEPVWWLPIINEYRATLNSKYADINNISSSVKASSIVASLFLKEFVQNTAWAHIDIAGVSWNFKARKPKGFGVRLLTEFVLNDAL

Aminopeptidase N = biological target: T2, Aminopeptidase N (Plasmodium falciparum FcB1/Columbia, UniProt O96935); assay: P. falciparum M1AAP inhibitors, biochemical, fluorogenic H-Leu-NHMec substrate, 1536-well (AID 1445); set-up: species or system Plasmodium falciparum 3D7, 3D7
T2 sequence (O96935 whole entry): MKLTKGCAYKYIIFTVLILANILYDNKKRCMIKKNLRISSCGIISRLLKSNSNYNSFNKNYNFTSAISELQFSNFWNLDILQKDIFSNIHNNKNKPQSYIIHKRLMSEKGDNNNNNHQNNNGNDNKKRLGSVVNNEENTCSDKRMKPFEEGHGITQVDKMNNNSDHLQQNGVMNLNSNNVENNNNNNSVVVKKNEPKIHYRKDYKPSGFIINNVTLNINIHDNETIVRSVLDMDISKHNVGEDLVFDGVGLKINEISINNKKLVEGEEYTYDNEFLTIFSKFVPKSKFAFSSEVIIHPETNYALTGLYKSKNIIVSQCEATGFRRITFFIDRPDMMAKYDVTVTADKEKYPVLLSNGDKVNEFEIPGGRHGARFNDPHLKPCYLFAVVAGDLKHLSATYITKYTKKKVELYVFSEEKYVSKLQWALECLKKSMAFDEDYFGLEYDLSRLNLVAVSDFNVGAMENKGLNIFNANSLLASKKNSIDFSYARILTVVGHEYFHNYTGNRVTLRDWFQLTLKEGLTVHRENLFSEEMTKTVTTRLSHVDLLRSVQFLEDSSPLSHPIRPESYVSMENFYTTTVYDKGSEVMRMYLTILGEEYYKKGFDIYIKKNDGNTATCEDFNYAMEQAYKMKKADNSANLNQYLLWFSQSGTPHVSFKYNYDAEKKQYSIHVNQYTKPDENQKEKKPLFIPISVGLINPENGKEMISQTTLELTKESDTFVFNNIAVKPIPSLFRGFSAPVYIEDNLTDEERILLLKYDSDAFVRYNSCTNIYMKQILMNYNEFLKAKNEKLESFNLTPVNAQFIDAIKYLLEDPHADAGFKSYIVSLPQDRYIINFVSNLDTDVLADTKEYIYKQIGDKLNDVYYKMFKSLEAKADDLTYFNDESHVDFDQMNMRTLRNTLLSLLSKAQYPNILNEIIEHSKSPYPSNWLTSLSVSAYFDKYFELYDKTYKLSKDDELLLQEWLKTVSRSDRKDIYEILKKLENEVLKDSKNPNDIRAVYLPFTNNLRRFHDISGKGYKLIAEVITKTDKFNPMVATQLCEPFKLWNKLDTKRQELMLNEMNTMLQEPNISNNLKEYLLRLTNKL

[1] = growth suppression of beta-catenin-knockout colon cells, dose response, cell-based, HCT116, human colon tumor (AID 1045); assay type: functional;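 note: HCT116 colon tumor cells with beta catenin knocked out; cells exposed to compound for 60 hours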
Cytochrome P450 1A2 = biological target: T3, Cytochrome P450 1A2 (Homo sapiens, UniProt P05177);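 note: PubChem cytochrome P450 panel assay, CYP1A2 panel member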
T3 sequence (P05177 whole entry): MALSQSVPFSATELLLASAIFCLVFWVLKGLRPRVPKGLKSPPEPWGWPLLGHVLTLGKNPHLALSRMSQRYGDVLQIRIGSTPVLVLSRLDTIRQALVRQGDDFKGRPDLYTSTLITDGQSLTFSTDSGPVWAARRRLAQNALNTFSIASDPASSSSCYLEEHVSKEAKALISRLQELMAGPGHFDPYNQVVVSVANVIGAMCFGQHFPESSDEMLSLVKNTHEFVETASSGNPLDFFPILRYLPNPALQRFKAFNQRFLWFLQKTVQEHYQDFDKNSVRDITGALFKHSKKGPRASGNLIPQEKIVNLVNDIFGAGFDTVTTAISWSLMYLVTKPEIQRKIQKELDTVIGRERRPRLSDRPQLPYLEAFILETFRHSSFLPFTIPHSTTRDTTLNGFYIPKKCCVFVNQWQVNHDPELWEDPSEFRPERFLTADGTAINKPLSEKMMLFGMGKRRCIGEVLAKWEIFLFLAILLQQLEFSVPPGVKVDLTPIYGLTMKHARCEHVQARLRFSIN

[2] = growth suppression of PTEN-null colon cells, dose response, cell-based, HCT116 PTEN knockout (AID 1047); assay type: functional;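 note: HCT116 colon tumor cells with PTEN knocked out; cells exposed to compound for 60 hours before readout; potency for loss of cell viability measured by luminescence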
[3] = Luminescence Cell-Based Dose Retest to Confirm Inhibitors of Cancer Stem Cells. [Related pubchem assays (depositor defined):AID2717, AID2721]; assay type: functional; details: Homo sapiens
Large T antigen = Large T antigen (Simian virus 40, UniProt P03070); assay type: functional, Betapolyomavirus macacae;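 note: Confirmatory-stage PubChem screen for compounds that inhibit SV40 T antigen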
Large T antigen, sequence (P03070 whole entry): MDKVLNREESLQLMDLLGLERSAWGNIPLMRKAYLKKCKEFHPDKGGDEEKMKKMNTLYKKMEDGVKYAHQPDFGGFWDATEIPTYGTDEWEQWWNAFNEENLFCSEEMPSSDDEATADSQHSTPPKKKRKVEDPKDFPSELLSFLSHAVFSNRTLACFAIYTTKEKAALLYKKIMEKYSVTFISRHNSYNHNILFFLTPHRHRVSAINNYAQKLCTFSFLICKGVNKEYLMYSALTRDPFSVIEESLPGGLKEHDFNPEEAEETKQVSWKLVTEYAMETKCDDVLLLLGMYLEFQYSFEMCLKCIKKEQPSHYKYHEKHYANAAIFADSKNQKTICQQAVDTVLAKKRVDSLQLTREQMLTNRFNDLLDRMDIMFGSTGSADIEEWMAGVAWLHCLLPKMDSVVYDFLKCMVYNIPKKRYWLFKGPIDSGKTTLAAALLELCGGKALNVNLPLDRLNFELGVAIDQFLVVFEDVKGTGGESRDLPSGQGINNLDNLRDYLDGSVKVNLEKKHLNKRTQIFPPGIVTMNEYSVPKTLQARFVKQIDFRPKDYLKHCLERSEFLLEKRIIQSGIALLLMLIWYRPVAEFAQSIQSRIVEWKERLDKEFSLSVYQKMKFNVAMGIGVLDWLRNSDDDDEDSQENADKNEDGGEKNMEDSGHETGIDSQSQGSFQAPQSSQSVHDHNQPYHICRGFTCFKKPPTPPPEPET

[4] = biological target: Induced myeloid leukemia cell differentiation protein Mcl-1 (Homo sapiens, UniProt Q07820); assay type: functional
Induced myeloid leukemia cell differentiation protein Mcl-1, sequence (Q07820 whole entry): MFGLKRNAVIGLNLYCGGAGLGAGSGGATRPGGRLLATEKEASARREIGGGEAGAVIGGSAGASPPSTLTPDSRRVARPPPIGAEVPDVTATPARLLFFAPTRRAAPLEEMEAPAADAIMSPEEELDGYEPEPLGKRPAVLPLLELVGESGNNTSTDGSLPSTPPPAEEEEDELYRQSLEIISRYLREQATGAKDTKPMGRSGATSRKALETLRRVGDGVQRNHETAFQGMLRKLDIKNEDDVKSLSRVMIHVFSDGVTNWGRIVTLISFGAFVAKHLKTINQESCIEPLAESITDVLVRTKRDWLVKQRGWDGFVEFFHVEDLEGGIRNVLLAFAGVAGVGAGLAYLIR

Nonstructural protein 1 = Nonstructural protein 1 (Influenza A virus, UniProt Q194T2); assay type: functional, Influenza A virus (A/California/07/2009(H1N1))
Nonstructural protein 1, sequence (Q194T2 whole entry, the tested form may be a part): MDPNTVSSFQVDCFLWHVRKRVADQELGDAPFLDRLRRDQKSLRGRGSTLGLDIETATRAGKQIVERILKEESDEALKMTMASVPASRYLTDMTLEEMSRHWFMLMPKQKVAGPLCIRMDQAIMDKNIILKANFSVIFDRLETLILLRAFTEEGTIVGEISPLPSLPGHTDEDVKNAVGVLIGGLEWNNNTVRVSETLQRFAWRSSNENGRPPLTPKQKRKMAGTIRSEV

[5] = inhibitors of HIV Env-driven cell fusion, dose response, cherry-pick (AID 652057); assay type: functional, cell-based
[6] = inhibitors of clade B AD8 Env fusion, dose response, cell-based, cherry-pick (AID 652062); assay type: functional;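 note: luciferase signal from cell-cell fusion driven by HIV-1 clade B AD8 Env; potency is for inhibitors of fusion seen as a drop in luminescence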
[7] = off-target signal loss in HeLa-CEM21 co-culture – HeLa F-luc CTL cells, cherry-picked, counter-screen for HIV-1 Env fusion inhibitor project, dose response (AID 652040); assay type: functional, cell-based;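 note: potency for signal decrease marking cytotoxic or nonspecific inhibition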
[8] = ZM109 Env clade C HIV-1 fusion inhibitors, dose response, HeLa effector, CEM target cells, luciferase, cherry-pick (AID 652058); assay type: functional, cell-based
[9] = HEp-2 cell cytotoxicity, dose response, cytotoxicity control for RSV inhibitor project, HTS (AID 2410); assay type: functional; details: human respiratory syncytial virus
[10] = Shn3 3'UTR reporter inhibitors, dose response, cell-based, Clone20 osteoblasts, firefly luciferase, cherry-picked (AID 624132); assay type: functional;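 note: firefly luciferase luminescence from reporter carrying the Shn3 3'UTR in osteoblasts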
INS1 = assay: beta cell apoptosis inhibitors, cytokine rescue, dose response, luminescence, retest (AID 449756); assay type: functional, cell-based; details: Rattus norvegicus;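 note: cell death triggered by IL-1 beta plus TNF-alpha plus IFN-gamma mixture; protective hits raise ATP signal compared with cytokine alone wells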
[11] = biological target: T4, Rac GTPase-activating protein 1 (Homo sapiens, UniProt Q9H0H5); assay: MgcRacGAP GTPase-activating activity inhibitors, confirmation, biochemical, ADP Hunter fluorescence, primary and confirmatory (AID 624330); assay type: functional
T4 sequence (Q9H0H5 whole entry): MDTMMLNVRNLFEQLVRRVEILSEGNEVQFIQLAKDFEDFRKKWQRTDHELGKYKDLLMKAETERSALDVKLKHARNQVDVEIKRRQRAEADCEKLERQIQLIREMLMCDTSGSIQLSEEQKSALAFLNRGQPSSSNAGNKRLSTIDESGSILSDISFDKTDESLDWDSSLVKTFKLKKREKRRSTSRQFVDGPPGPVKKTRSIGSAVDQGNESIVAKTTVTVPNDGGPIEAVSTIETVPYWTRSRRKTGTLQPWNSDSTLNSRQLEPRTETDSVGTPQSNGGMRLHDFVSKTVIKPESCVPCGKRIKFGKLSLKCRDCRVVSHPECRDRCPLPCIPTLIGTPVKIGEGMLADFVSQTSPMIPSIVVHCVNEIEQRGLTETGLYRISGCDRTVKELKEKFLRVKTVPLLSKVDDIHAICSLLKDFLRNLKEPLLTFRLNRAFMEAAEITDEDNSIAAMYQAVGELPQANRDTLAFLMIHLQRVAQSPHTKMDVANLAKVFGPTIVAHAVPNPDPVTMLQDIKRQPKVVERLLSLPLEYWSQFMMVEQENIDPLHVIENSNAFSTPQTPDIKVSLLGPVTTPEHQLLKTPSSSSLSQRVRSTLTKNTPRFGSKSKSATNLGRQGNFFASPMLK

With O=C(CSc1ncccc1C(=O)O)NCc1ccc(F)cc1 the IC50 (Leucine aminopeptidase) was 42.7 µM (active).

For CC(C)S(=O)(=O)C1=NSC2=NC(=O)/C(=C\c3c[nH]c4ccccc34)C(=N)N21, the IC50 (Aminopeptidase N) was 37.3 µM (active).

For CCC(=O)c1ccc(OCC(O)CN(CCc2ccccc2)Cc2ccccc2)cc1 (stereo not given), the EC50 [1] was 83.6 µM (active), the AC50 (Cytochrome P450 1A2) was 20 µM (inconclusive) and the EC50 [2] was 49.2 µM (active).

For COc1ccc(C2NCCc3c2[nH]c2ccccc32)cc1CSc1nc2ccccc2s1 (stereo not given), the AC50 [3] was 3.13 µM (active), the EC50 [1] was 10.1 µM (active) and the EC50 [2] was 12.1 µM (active).

With Cc1nnc(SCC(=O)Nc2ccc(N(C)C)cc2)n(N)c1=O the IC50 (Large T antigen) was 11.6 µM (active).

For CCc1cc(=O)oc2c(C)c(O)c(CN3CCCCC3)cc12, the IC50 (Aminopeptidase N) was 39.9 µM (active).

In the case of FC(F)(F)C1=CC(c2ccccc2)=NCCN1, the IC50 [4] is reported as 9.33 µM (not active).

With CC(NC(=O)c1ccco1)C(=O)Nc1nc(-c2ccccn2)cs1 (stereo not given) the IC50 (Nonstructural protein 1) was 9.55 µM (active).

In the case of CCCCc1nc2sc3c(c2c(=O)n1NC(=O)c1ccco1)CC(C)(C)OC3, the IC50 (Aminopeptidase N) is reported as 42.8 µM (active).

In the case of NC(CC(=O)O)c1ccc(Br)cc1 (stereo not given), the IC50 (Aminopeptidase N) is reported as 69.2 µM (active).

With O=c1[nH]c2ccc(Cl)cc2c(-c2ccccc2)c1CN1CCOCC1 the IC50 (Aminopeptidase N) was 81.5 µM (active).

With Oc1ccc(-c2nc3ncccn3c2Nc2ccc3c(c2)OCO3)cc1 the IC50 (Large T antigen) was 15.6 µM (active).

With O=C(Nc1nc2ccccc2[nH]1)c1ccc(Cl)c([N+](=O)[O-])c1 the IC50 [4] was 6.46 µM (active).

For COc1ccc(/C=C/C(O)=C2\C(=O)NC(=O)N(CCC3=CCCCC3)C2=O)cc1, the AC50 [3] was 2.71 µM (active), the EC50 [1] was 14.4 µM (active) and the EC50 [2] was 13.7 µM (active).

With CN(C)c1ccc(NC(=O)CCN2CCN(c3ccccn3)CC2)cc1 the IC50 (Large T antigen) was 6.73 µM (active).

For CC1CCC2(CC1)NC(=O)N(CC(=O)Nc1ccc3c(c1)OCCO3)C2=O (stereo not given), the IC50 (Leucine aminopeptidase) was 13.8 µM (active).

In the case of COc1ccc(C(C(=O)NC2CCCC2)N(C(=O)c2ccoc2C)c2ccc(C)cc2)cc1 (stereo not given), the AC50 [5] is reported as 5.46 µM (active), the AC50 [6] is reported as 11.7 µM (active) and the AC50 [7] is reported as 8.48 µM (active). The AC50 [8] was 3.47 µM (active).

With C=CCOc1ccccc1CNc1ccc2[nH]c(O)nc2c1 the CC50 [9] was 21.8 µM (active) and the IC50 (Large T antigen) was 19 µM (active).

For CCOc1ccc(C2C3=C(O)c4ccccc4C3=Nc3nc(N)nc(O)c32)cc1 (stereo not given), the IC50 [4] was > 54 µM (active).

For Cc1cc(C=C2C(=O)c3ccccc3C2=O)c(C)n1-c1cccc(C(=O)O)c1, the IC50 (Leucine aminopeptidase) was 18.6 µM (active).

For CC12CC3CC(C)(C1)CC(C(=O)NCc1ccncc1)(C3)C2, the AC50 [5] was 7.75 µM (active), the AC50 [6] was 22.4 µM (active) and the AC50 [7] was 13.5 µM (active). The AC50 [8] was 4.58 µM (active).

With CCCCN1CC(COCc2ccccc2)Oc2cccc(Oc3ccc(C)cc3)c2S1(=O)=O (stereo not given) the AC50 [10] was 10.7 µM (active).

With Cc1ccccc1NC(=S)N/N=C/c1ccc(O)cc1O the AC50 (INS1) was 2.54 µM (active) and the IC50 (Nonstructural protein 1) was 11.2 µM (active).

With CCOc1cc(/C=N/NC(=O)CCc2nnc(O)nc2O)ccc1O the IC50 [11] was 59.5 µM (active) and the IC50 (Large T antigen) was 32.7 µM (active).

In the case of COc1nccnc1NS(=O)(=O)c1ccc(/N=C/c2c(C)nn(-c3ccc(C)c(C)c3)c2O)cc1, the IC50 (Leucine aminopeptidase) is reported as 19.3 µM (active).
